Tests used:
PKD1 knockout mice = test: PKD mouse experiment; format: in vivo; settings: 2 mg/kg subcutaneous injection, seven days of administration
Source text: Such compounds have antagonistic effects on arginine vasopressin receptors, and can inhibit the effect of cAMP in vivo, thereby inhibiting the occurrence and development of PKD. In this experiment, PKD1 knockout mice were used to evaluate the efficacy of these compounds.
1. Numbering the mice to perform gene identification: After 3 days of birth, the mice were marked by the method of cutting toes. The cut toes were placed in EP tubes marked in advance to boil, and then the genes were identified by agarose electrophoresis after PCR.
2. Preparation of corresponding medicaments: The corresponding weights of drugs were precisely weighed with an electronic balance and placed in new EP tubes. Then the corresponding amounts of HPMC were added with a pipette to prepare the medicaments of the desired concentration.
3. Administration to mice: The administrations of medicaments to mice was started on Day 6 or 5 after birth (the underweight mice were administered with medicaments on Day 6, and the rest of mice were administered with medicaments on Day 5), and the administration time was fixed (for example, 9:00 am). […]
5. Data processing: The total weight of the left and right kidneys, and the proportion of the kidneys, etc. were calculated.

MDCK cells = test: PKD vesicle experiment (forskolin-induced vesicles of MDCK cells in matrigel); format: cell-based; settings: 10 μM Forsklin, day 12
Description: The vesicles similar to those in PKD disease are formed by using MDCK cells under the action of AC enzyme agonist forskolin to simulate the occurrence and development of the disease, and the test compounds are respectively administered to observe their effects on the vesicles.
The MDCK cells were cultured at 37° C./5% CO2, with DMEM F12 medium (purchased from Combio technology company) supplemented with 10% fetal bovine serum and 1% double antibody.
During the re-cooling of matrigel, MDCK cells were digested and counted. […] The cells were incubated for 12 days, in which the medium was changed every 12 h, and photos were taken at days 4, 6, 8, 10, and 12. The photo area was selected to track the specific vesicles.
The diameters of vesicles were compared on day 12 to assess the effect of test compounds.

human V2R = human V2R (Homo sapiens, UniProt P30518); settings: for residence time: read-out: RT (residence time of the compound to be tested on cells); for koff: read-out: koff (dissociation constant between the compound to be tested and cells); for kon: read-out: kon (association constant between the compound to be tested and cells)
ADPKD patients = settings: cited from earlier work

Chain of human V2R (P30518 whole entry): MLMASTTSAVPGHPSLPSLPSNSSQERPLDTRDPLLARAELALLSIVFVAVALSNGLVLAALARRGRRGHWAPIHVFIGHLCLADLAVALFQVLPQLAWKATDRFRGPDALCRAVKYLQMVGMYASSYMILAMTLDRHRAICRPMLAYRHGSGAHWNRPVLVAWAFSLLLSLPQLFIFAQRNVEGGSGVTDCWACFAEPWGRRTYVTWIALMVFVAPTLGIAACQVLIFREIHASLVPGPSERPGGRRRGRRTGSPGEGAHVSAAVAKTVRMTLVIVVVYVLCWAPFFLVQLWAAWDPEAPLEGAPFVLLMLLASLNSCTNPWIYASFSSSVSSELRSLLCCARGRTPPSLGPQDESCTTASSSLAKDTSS

| residence time (human V2R) | koff (human V2R) | kon (human V2R) | affinity to V2R compared with Tolvaptan (human V2R; text summary of Table 7) | Ki (human V2R) | Compound | Proportion of the kidneys % (PKD1 knockout mice) | The diameter of vesicles (MDCK cells) | residence time with receptor compared with Tolvaptan (human V2R; text summary of Table 7) | serum hepatic transaminases (ADPKD patients; clinical trials, some patients) | excretion rate of sodium and urea (ADPKD patients; prospective study, 30 ADPKD patients, after administration) |
| --- | --- | --- | --- | --- | --- | --- | --- | --- | --- | --- |
| 13 ± 1 min | 0.00125 s⁻¹ | 165000 M⁻¹ s⁻¹ | comparable to the affinity of Tolvaptan |  | Cc1ccccc1C(=O)Nc1ccc(C(=O)N2CCCC(NCCCc3ccncc3)c3cc(Cl)ccc32)c(C)c1 (stereo not drawn) [Compound 5, N-(4-(7-chloro-5-((3-(pyridin-4-yl)propyl)amino)-2,3,4,5-tetrahydro-1H-benzo[b]azepine-1-carbonyl)-3-methylphenyl)-2-methylbenzamide] |  |  |  |  |  |
| 9 ± 1 min | 0.00183 s⁻¹ | 683000 M⁻¹ s⁻¹ | comparable to the affinity of Tolvaptan |  | Cc1ccccc1C(=O)Nc1ccc(C(=O)N2CCCC(NCCC(=O)N3CCOCC3)c3cc(Cl)ccc32)c(C)c1 (stereo not drawn) [Compound 13, N-(4-(7-chloro-5-((3-morpholino-3-oxopropyl)amino)-2,3,4,5-tetrahydro-1H-benzo[b]azepine-1-carbonyl)-3-methylphenyl)-2-methylbenzamide] |  |  |  |  |  |
| 7 ± 1 min | 0.00233 s⁻¹ | 350000 M⁻¹ s⁻¹ |  |  | Cc1ccccc1C(=O)Nc1ccc(C(=O)N2CCCC(NCCCN3CCN(C)CC3)c3cc(Cl)ccc32)c(C)c1 (stereo not drawn) [Compound 17, N-(4-(7-chloro-5-((3-(4-methylpiperazin-1-yl)propyl)amino)-2,3,4,5-tetrahydro-1H-benzo[b]azepine-1-carbonyl)-3-methylphenyl)-2-methylbenzamide] |  |  |  |  |  |
| 17 ± 2 min | 0.001 s⁻¹ | 18300 M⁻¹ s⁻¹ |  | 77 ± 26 nM | Cc1ccccc1C(=O)Nc1ccc(C(=O)N2CCCC(NCCOc3ccccc3)c3cc(Cl)ccc32)c(C)c1 (stereo not drawn) [Compound 21, N-(4-(7-chloro-5-((2-phenoxyethyl)amino)-2,3,4,5-tetrahydro-1H-benzo[b]azepine-1-carbonyl)-3-methylphenyl)-2-methylbenzamide] |  |  |  |  |  |
| 7 ± 1 min | 0.0025 s⁻¹ | 183000 M⁻¹ s⁻¹ |  | 31 ± 7 nM | Cc1ccccc1C(=O)Nc1ccc(C(=O)N2CCCC(NCCCCCOc3ccccc3)c3cc(Cl)ccc32)c(C)c1 (stereo not drawn) [Compound 24, N-(4-(7-chloro-5-((5-phenoxypentyl)amino)-2,3,4,5-tetrahydro-1H-benzo[b]azepine-1-carbonyl)-3-methylphenyl)-2-methylbenzamide] |  |  |  |  |  |

Second part, the molecule before the results:

| Compound | residence time (human V2R) | koff (human V2R) | kon (human V2R) | affinity to V2R compared with Tolvaptan (human V2R; text summary of Table 7) | Ki (human V2R) | Proportion of the kidneys % (PKD1 knockout mice) | The diameter of vesicles (MDCK cells) | residence time with receptor compared with Tolvaptan (human V2R; text summary of Table 7) | serum hepatic transaminases (ADPKD patients; clinical trials, some patients) | excretion rate of sodium and urea (ADPKD patients; prospective study, 30 ADPKD patients, after administration) |
| --- | --- | --- | --- | --- | --- | --- | --- | --- | --- | --- |
| Cc1ccccc1C(=O)Nc1ccc(C(=O)N2CCCC(NCCCN3CCOCC3)c3cc(Cl)ccc32)c(C)c1 (stereo not drawn) [Compound 1, N-(4-(7-chloro-5-((3-morpholinopropyl)amino)-2,3,4,5-tetrahydro-1H-benzo[b]azepine-1-carbonyl)-3-methylphenyl)-2-methylbenzamide] |  |  |  |  |  | 11.85% | 172.0 μm |  |  |  |
| Cc1ccccc1C(=O)Nc1ccc(C(=O)N2CCCC(NCCCCN3CCOCC3)c3cc(Cl)ccc32)c(C)c1 (stereo not drawn) [Compound 2, N-(4-(7-chloro-5-((4-morpholinobutyl)amino)-2,3,4,5-tetrahydro-1H-benzo[b]azepine-1-carbonyl)-3-methylphenyl)-2-methylbenzamide] | 12 ± 2 min | 0.00135 s⁻¹ | 160000 M⁻¹ s⁻¹ |  |  |  |  |  |  |  |
| Cc1ccccc1C(=O)Nc1ccc(C(=O)N2CCCC(NCCCCCN3CCOCC3)c3cc(Cl)ccc32)c(C)c1 (stereo not drawn) [Compound 3, N-(4-(7-chloro-5-((5-morpholinopentyl)amino)-2,3,4,5-tetrahydro-1H-benzo[b]azepine-1-carbonyl)-3-methylphenyl)-2-methylbenzamide] | 14 ± 2 min | 0.00118 s⁻¹ | 105000 M⁻¹ s⁻¹ |  |  |  |  |  |  |  |
| Cc1ccccc1C(=O)Nc1ccc(C(=O)N2CCCC(NCCN3CCOCC3)c3cc(Cl)ccc32)c(C)c1 (stereo not drawn) [Compound 4, N-(4-(7-chloro-5-((2-morpholinoethyl)amino)-2,3,4,5-tetrahydro-1H-benzo[b]azepine-1-carbonyl)-3-methylphenyl)-2-methylbenzamide] | 21 ± 2 min | 0.000783 s⁻¹ | 333000 M⁻¹ s⁻¹ | comparable to the affinity of Tolvaptan |  |  |  | longer residence time with receptor than Tolvaptan |  |  |
| Cc1ccccc1C(=O)Nc1ccc(C(=O)N2CCCC(O)c3cc(Cl)ccc32)c(C)c1 (stereo not drawn) [Tolvaptan, tolvaptan, reference compound] |  |  |  |  |  | 15.80% | 183.7 μm |  | increased to more than three times the normal level | increased |

From patent US20240076279A1, “NOVEL BENZOAZEPINE COMPOUND, AND COMPOSITION AND USE THEREOF” (XUZHOU MEDICAL UNIVERSITY, priority 2021, published 2024)
